Experimental data reported in ChEMBL document CHEMBL1201862, “PubChem BioAssay data set” (2004).
Calls of active or inactive are those of the source.

Experiments:
[1] = target: T1, Short transient receptor potential channel 4 (Mus musculus, UniProt Q9QUQ5); assay: mouse TRPC4 channel activators, dose response, cell-based, HEK293 TRPC4/mu-opioid, Fluo-4 calcium (AID 434937); type: functional
T1 sequence (Q9QUQ5 whole entry): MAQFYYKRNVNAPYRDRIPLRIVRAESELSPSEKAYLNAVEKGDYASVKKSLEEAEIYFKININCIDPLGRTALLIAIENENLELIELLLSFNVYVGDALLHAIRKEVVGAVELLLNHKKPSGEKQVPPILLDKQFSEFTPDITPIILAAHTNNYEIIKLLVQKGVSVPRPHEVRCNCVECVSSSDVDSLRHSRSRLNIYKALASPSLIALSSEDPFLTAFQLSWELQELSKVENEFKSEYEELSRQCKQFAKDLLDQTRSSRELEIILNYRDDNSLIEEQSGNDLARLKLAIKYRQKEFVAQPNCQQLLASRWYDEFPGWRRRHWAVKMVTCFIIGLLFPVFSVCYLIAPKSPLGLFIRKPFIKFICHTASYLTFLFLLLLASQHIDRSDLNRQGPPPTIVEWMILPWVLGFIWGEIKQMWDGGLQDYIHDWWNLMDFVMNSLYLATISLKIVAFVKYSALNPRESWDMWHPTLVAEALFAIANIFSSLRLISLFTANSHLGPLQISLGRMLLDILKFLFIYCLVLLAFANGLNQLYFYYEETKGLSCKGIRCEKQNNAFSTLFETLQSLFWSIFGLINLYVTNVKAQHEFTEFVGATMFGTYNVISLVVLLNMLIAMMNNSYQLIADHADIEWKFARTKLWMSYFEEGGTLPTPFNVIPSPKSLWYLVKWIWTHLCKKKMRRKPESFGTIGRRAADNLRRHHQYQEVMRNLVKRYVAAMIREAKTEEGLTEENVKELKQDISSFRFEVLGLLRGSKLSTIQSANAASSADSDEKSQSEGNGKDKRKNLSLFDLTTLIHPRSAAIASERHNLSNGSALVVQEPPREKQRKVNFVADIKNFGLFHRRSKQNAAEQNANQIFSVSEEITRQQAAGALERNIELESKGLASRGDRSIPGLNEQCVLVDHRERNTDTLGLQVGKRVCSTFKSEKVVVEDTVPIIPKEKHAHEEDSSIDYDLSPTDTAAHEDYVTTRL

[2] = target: Delta-type opioid receptor (Homo sapiens, UniProt P41143); assay: Counterscreen for agonists of heterodimerization of the mu 1 (OPRM1) and delta 1 (OPRD1) opioid receptors: Luminescence-based cell-based high throughput dose response assay to identify agonists of OPRD1 homodimerization. [Related pubchem assays (depositor defined):AID504326, AID504355, AID504692, AID504904, AID504905]; type: functional
Mu-type opioid receptor = Mu-type opioid receptor (Homo sapiens, UniProt P35372); assay: Counterscreen for agonists of heterodimerization of the mu 1 (OPRM1) and delta 1 (OPRD1) opioid receptors: Luminescence-based cell-based high throughput dose response assay to identify agonists of OPRM1 homodimerization.; type: functional;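 further: U2OS cells expressing OPRM1 and beta-arrestin as split beta-galactosidase partners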
[3] = target: 5-hydroxytryptamine receptor 5A (Homo sapiens, UniProt P47898); assay: Counterscreen for agonists of OPRM1-OPRD1 heterodimerization: luminescence-based cell-based high throughput dose response assay to identify agonists of 5-hydroxytryptamine (serotonin) 5A receptor (HTR5A). [Related pubchem assays (depositor defined):AID504326, AID504355, AID504692, AID504904, AID504905]; type: functional
[4] = target: Beta-2 adrenergic receptor (Homo sapiens, UniProt P07550); assay: beta2AR agonists driving receptor internalization, dose response, cell-based, FAP fluorogen, flow cytometry, cherry pick 1 (AID 588763); type: functional
[5] = microbe, parasite or virus in culture; type: functional; conditions: Mycobacterium tuberculosis
[6] = target: FAD-linked sulfhydryl oxidase ALR (Homo sapiens, UniProt P55789); assay: inhibitors of human ALR sulfhydryl oxidase, dose response, biochemical, H2O2 detection, luminescence, cherry-pick (AID 493248)
[7] = target: 26S proteasome non-ATPase regulatory subunit 14 (Homo sapiens, UniProt O00487); assay: inhibition of proteasome subunit RPN11 – biochemical, fluorescence polarization, uHTS hits, confirmation (AID 602368); type: functional
[8] = target: 72 kDa type IV collagenase (Homo sapiens, UniProt P08253); assay: Dose Response validation of uHTS RPN11 inhibitor hits using a MMP-2 Fluorescence assay.; type: functional
Prothrombin = Prothrombin (Bos taurus, UniProt P00735); assay: thrombin inhibition, dose response, biochemical, fluorescence polarization, uHTS hits (AID 602369); type: functional
Cytochrome P450 3A4 = Cytochrome P450 3A4 (Homo sapiens, UniProt P08684); conditions: Potency;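 further: confirmatory qHTS run detecting inhibitors and substrates of CYP3A4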
[9] = target: Voltage-gated inwardly rectifying potassium channel KCNH2 (Homo sapiens, UniProt Q12809); conditions: Potency;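 further: confirmatory quantitative high-throughput screen measuring inhibition of hERG channel activity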
[10] = target: Carboxy-terminal domain RNA polymerase II polypeptide A small phosphatase 1 (Homo sapiens, UniProt Q9GZU7); assay: inhibitors of CTDSP1, concentration-response testing, biochemical assay, absorbance-based, actives from ultra-high-throughput screening (AID 540297); type: functional
[11] = insulin promoter down-regulators in MIN6 cells, imaging, high-content screening, mouse beta cells (AID 1628); type: functional
[12] = cytotoxicity in MIN6 insulinoma cells, dose response, cytotoxicity control, cell-based, mouse insulinoma (AID 2122); type: functional;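 further: confirmatory high-throughput counterscreen run to flag cytotoxic compounds; mouse MIN-6 beta cells carrying an insulin promoter eGFP reporter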
[13] = target: T2, G-protein coupled receptor 35 (Homo sapiens, UniProt Q9HC97); assay: GPR35 antagonists blocking zaprinast-driven arrestin recruitment, primary screen, imaging, U2OS, beta-arrestin-GFP, zaprinast agonist (AID 2058); type: functional;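 further: antagonist potency meaning inhibition of agonist-induced arrestin redistribution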
[14] = target: T2, G-protein coupled receptor 35; assay: SAR Analysis for the identification of Selective Antagonists of ERK1/2 Activity in GPR35-Overexpressing U2OS Cells. [Related pubchem assays: 2079, 2058 ]; type: functional, cell-based
Caspase-3 = target: T3, Caspase-3 (Homo sapiens, UniProt P42574); type: functional;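 further: Dose-response selectivity test against caspase-3 for candidate inhibitors of sentrin-specific proteases (SENPs)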
T3 sequence (P42574 whole entry): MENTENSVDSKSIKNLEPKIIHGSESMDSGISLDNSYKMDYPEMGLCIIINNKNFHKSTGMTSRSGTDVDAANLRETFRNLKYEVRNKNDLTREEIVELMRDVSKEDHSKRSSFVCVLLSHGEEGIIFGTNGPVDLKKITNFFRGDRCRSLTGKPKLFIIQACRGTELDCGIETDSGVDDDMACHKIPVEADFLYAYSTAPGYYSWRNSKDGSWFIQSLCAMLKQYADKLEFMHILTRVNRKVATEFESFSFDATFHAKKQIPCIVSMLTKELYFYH

[15] = target: T4, Sentrin-specific protease 7 (Homo sapiens, UniProt Q9BQF6); type: functional;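 further: Luminescence-based dose-response confirmation of ultra-high-throughput screening hits, measuring inhibition of SENP7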
T4 sequence (Q9BQF6 whole entry): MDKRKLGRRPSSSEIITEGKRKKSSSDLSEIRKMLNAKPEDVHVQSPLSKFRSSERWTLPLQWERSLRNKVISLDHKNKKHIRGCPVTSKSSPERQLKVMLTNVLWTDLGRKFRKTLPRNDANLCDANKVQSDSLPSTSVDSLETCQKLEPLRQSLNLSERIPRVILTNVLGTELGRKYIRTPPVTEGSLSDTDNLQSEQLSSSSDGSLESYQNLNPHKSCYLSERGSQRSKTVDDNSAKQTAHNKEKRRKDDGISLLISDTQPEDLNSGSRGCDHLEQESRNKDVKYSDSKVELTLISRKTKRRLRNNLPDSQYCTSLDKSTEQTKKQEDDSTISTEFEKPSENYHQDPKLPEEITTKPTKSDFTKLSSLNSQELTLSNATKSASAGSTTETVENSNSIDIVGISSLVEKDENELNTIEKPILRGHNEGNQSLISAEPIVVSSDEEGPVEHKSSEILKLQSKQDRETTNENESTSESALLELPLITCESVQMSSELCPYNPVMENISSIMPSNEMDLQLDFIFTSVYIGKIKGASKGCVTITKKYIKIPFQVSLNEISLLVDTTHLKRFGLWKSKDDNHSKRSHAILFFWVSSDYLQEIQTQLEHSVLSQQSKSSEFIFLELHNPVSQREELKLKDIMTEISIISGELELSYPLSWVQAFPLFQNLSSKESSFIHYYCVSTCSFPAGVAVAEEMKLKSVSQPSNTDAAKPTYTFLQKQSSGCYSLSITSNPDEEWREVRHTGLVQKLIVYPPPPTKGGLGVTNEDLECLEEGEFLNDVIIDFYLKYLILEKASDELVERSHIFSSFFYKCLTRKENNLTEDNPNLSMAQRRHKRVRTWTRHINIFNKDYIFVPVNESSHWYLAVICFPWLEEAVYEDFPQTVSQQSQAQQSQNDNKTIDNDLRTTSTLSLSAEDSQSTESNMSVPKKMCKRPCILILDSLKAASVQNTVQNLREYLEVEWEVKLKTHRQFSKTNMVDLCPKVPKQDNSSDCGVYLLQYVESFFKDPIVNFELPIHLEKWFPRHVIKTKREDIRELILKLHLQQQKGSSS

[16] = target: T5, Sentrin-specific protease 6 (Homo sapiens, UniProt Q9GZR1); type: functional;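 further: Luminescence-based dose-response confirmatory assay of SENP6 inhibition, following up an ultra-high-throughput screen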
T5 sequence (Q9GZR1 whole entry): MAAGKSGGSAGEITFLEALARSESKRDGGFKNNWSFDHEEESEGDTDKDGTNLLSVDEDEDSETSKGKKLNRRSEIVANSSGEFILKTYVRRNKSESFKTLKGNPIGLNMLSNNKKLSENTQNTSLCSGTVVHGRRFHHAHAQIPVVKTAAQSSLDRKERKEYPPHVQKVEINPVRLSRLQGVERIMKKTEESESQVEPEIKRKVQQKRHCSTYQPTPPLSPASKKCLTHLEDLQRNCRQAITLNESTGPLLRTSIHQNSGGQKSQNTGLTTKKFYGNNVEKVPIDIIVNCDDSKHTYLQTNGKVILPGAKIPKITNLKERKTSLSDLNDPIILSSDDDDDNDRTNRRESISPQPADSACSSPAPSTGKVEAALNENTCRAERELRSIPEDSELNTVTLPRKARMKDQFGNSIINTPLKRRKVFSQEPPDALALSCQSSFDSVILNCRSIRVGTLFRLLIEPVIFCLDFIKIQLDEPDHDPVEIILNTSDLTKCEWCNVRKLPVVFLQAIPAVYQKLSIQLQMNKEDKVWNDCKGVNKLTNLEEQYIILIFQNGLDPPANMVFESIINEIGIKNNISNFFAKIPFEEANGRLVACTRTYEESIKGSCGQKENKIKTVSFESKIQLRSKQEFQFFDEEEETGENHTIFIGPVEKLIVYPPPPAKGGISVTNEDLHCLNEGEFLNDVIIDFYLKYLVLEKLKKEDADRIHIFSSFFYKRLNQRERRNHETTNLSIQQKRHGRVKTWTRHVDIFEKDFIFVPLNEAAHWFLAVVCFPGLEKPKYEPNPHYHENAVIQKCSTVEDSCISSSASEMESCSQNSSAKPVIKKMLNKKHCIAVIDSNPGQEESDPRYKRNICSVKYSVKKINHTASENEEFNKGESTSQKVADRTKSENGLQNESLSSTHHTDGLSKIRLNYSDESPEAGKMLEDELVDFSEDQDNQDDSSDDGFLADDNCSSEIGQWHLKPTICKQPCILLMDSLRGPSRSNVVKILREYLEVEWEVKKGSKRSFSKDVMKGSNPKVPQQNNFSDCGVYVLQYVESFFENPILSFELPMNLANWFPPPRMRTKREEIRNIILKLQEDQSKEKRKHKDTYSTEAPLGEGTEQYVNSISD

[17] = target: T6, Sentrin-specific protease 8 (Homo sapiens, UniProt Q96LD8); type: functional;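 further: luminescence read-out of SENP8 inhibition, dose-response confirmation following an ultra-high-throughput screen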
T6 sequence (Q96LD8 whole entry): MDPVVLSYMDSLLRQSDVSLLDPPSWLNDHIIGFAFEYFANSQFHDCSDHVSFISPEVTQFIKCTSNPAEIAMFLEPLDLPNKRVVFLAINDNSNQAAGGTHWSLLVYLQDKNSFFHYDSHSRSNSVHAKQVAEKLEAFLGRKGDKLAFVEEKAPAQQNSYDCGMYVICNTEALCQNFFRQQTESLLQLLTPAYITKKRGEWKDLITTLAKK

[18] = target: G-protein coupled receptor 55 (Homo sapiens, UniProt Q9Y2T6); assay: GPR55 antagonists, SAR follow-up, counter-screen for GPR35 antagonist project, imaging, image-based (AID 2397); type: functional
[19] = NIH-3T3 fibroblast cytotoxicity, dose response, cytotoxicity control, cell-based, fluorescence, Alamar Blue, secondary assay (AID 2327); type: functional;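 further: NIH-3T3 mouse fibroblasts cultured with fluconazole at 8 µg/mL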
[20] = C. albicans growth with fluconazole, confirmation, fluorescence, retest (AID 2467); type: functional, cell-based
[21] = inhibitors of intracellular T. cruzi replication, confirmation, NIH3T3 host cells, beta-gal luminescence (AID 2044); type: functional, cell-based;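 further: intracellular parasites grown in NIH/3T3 mouse fibroblasts as host cells; luminescent beta-galactosidase reporter signal from transgenic T. cruzi replicating inside host cells; inhibitors lower the luminescence signal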
[22] = cytotoxicity toward NIH3T3 fibroblasts, dose response, counter-screen, cell-based, ATP luminescence, mouse fibroblasts (AID 2010); type: functional;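 further: cells exposed to compound for about 90 hours before reading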

Sequence of Mu-type opioid receptor (P35372 whole entry): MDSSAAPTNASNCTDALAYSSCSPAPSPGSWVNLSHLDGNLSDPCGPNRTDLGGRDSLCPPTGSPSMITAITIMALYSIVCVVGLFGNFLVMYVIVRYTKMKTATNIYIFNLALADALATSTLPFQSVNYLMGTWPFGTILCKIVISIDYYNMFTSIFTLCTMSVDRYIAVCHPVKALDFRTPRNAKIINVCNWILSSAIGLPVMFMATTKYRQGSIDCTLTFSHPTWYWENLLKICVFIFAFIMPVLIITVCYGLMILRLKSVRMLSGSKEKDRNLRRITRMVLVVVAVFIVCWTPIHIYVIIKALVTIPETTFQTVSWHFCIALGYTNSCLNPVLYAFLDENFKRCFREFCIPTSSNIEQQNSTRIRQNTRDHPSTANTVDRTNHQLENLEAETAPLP
T2 sequence (Q9HC97 whole entry): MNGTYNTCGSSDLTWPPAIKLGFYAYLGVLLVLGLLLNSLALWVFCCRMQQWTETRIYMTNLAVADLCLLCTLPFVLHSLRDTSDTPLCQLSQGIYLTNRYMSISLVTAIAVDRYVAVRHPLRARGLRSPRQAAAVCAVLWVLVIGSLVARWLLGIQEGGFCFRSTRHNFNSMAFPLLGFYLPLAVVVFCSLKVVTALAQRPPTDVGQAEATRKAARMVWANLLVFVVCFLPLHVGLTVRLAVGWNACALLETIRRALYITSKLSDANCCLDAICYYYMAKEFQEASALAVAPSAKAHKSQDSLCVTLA
Sequence of Voltage-gated inwardly rectifying potassium channel KCNH2 (Q12809 whole entry, the tested form may be a part): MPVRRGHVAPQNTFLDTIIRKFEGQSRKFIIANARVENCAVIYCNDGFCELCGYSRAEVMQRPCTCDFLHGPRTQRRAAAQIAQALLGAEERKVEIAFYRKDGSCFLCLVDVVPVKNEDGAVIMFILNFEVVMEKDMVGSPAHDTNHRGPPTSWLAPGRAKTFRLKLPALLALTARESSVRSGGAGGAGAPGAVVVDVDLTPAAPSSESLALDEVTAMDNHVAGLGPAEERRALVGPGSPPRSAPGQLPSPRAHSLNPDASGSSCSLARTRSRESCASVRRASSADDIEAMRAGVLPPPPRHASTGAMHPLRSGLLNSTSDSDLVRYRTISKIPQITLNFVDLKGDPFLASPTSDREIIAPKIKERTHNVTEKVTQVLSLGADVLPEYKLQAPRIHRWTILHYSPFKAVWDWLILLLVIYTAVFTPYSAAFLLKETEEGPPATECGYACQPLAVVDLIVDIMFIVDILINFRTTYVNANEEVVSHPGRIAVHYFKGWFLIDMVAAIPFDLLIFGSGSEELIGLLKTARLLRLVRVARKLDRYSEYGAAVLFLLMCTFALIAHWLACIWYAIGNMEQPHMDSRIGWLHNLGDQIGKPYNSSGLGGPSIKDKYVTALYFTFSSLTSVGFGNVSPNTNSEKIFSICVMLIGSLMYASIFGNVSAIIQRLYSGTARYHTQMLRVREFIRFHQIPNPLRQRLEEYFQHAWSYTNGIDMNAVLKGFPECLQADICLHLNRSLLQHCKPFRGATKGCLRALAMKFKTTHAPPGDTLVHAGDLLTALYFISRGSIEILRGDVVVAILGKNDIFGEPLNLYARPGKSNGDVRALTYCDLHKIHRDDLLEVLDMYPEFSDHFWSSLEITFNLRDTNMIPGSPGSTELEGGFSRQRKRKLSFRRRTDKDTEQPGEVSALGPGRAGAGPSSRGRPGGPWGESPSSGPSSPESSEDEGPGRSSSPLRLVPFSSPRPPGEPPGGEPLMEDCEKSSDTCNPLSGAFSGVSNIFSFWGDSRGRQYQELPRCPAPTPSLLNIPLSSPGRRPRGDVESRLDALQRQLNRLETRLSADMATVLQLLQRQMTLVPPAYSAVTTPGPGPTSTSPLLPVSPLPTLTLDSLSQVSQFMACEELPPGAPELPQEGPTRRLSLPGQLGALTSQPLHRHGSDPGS
Sequence of 5-hydroxytryptamine receptor 5A (P47898 whole entry): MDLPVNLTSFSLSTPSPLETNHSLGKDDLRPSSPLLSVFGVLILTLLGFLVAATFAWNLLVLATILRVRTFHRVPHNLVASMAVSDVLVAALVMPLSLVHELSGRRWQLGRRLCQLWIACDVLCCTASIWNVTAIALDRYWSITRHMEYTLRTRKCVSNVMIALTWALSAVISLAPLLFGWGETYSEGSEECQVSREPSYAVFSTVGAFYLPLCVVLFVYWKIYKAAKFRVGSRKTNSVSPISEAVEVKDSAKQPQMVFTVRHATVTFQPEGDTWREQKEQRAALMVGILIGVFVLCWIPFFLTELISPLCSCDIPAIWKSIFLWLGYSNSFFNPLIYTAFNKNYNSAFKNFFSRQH
Sequence of Delta-type opioid receptor (P41143 whole entry): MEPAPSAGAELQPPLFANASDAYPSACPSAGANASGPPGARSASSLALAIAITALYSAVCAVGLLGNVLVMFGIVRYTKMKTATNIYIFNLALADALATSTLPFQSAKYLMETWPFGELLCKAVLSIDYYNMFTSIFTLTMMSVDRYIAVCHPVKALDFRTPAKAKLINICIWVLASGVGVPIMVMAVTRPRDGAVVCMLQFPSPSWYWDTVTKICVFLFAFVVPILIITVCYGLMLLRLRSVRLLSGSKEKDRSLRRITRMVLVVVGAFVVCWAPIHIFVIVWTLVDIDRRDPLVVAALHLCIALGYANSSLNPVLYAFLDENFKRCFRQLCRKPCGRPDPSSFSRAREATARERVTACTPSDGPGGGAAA
Sequence of 72 kDa type IV collagenase (P08253 whole entry): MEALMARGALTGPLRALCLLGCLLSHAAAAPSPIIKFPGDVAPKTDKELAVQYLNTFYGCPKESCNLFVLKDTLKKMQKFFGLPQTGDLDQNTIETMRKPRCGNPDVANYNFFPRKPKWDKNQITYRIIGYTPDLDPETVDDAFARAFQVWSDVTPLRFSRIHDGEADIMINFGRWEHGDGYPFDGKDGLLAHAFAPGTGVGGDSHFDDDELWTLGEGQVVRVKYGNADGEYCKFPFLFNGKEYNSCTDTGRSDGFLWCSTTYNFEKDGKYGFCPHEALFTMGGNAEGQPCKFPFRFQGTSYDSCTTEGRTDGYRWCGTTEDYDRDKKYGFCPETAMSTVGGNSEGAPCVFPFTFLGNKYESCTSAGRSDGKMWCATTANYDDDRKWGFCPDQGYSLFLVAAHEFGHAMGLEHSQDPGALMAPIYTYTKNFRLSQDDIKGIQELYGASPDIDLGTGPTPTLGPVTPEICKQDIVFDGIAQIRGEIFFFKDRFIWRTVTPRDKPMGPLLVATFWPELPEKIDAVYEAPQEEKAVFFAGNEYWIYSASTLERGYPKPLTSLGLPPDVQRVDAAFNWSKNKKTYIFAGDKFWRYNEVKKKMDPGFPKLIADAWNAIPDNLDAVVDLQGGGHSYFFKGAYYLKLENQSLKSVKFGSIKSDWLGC
Sequence of Cytochrome P450 3A4 (P08684 whole entry): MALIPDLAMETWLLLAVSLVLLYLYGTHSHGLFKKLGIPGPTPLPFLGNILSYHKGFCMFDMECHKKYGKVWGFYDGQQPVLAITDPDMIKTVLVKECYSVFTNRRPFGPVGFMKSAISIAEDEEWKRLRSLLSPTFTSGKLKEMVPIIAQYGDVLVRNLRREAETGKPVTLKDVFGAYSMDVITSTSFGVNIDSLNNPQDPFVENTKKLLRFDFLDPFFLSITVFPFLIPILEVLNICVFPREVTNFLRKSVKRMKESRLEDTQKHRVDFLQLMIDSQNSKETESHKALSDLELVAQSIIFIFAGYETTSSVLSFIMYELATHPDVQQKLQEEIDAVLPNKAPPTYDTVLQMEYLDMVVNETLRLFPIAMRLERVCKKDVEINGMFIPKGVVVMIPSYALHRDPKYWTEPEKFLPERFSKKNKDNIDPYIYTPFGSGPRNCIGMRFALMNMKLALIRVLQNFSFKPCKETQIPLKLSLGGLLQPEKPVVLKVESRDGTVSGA
Sequence of 26S proteasome non-ATPase regulatory subunit 14 (O00487 whole entry): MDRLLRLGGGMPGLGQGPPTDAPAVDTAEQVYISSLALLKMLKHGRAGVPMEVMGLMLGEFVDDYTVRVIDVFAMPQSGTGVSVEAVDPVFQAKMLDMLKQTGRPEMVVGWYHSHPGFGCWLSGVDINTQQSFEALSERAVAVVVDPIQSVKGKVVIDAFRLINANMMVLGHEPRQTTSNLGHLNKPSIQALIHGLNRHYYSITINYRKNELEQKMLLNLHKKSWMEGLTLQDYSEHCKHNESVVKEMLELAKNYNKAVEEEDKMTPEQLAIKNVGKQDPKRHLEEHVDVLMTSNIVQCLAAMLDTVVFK
Sequence of G-protein coupled receptor 55 (Q9Y2T6 whole entry): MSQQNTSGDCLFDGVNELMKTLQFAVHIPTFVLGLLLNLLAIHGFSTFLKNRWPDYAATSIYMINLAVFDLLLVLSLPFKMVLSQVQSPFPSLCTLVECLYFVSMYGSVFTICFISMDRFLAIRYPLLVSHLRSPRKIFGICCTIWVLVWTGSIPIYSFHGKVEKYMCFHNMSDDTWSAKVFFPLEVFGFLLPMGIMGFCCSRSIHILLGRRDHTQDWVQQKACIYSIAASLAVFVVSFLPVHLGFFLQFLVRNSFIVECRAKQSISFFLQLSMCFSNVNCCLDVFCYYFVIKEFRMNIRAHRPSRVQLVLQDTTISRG
Sequence of Carboxy-terminal domain RNA polymerase II polypeptide A small phosphatase 1 (Q9GZU7 whole entry, the tested form may be a part): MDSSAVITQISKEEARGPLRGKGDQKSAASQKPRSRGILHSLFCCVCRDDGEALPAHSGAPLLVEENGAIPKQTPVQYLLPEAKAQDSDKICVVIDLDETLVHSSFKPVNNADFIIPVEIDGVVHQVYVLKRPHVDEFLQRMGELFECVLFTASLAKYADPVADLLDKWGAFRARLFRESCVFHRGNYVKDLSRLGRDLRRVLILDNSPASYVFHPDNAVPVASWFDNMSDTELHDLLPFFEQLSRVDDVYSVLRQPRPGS
Sequence of FAD-linked sulfhydryl oxidase ALR (P55789 whole entry): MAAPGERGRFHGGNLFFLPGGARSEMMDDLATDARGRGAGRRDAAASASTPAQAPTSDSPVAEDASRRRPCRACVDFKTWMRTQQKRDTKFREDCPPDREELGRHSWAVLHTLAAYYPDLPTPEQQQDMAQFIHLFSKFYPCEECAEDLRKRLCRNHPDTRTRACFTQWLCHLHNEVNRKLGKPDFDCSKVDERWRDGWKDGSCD

OCC1(CC2CCCCO2)CCN(Cc2ccccc2-c2ccco2)CC1 (configuration not stated)
EC50 [1]: 0.668 µM (active)
EC50 [2]: > 92.4 µM (inactive)
EC50 (Mu-type opioid receptor): > 92.4 µM (inactive)
EC50 [3]: > 92.4 µM (inactive)

COc1ccc(-n2c3c(cc(C(=O)NNc4ccccc4C)c2=O)C(=O)CC(C)(C)C3)cc1
EC50 [2]: > 92.5 µM (inactive)
EC50 (Mu-type opioid receptor): 14.5 µM (inactive)
EC50 [3]: > 92.5 µM (inactive)

COc1ccc(CNC(=O)CCCCCNc2nc(S)nc3ccccc23)cc1
EC50 [4]: 0.0255 µM (active)

CCN(CC)c1ccc(N)cc1
CC50 [5]: 27.9 µM (active)
AC50 [6]: 6.78 µM (active)
IC50 [7]: 4.69 µM (active)
IC50 [8]: > 100 µM (inactive)
IC50 (Prothrombin): 5.11 µM (active)
AC50 (Cytochrome P450 3A4): 25.1 µM (inconclusive)
AC50 [9]: 10 µM (inconclusive)

Cc1cnc(C(=O)OCc2nc(O)c3sccc3n2)cn1
IC50 [10]: 7.9 µM (active)

CCOc1ccc(C(O)Cn2c(=N)n(CCN3CCCCC3)c3ccccc32)cc1 (configuration not stated)
IC50 [11]: 2.55 µM (active)
IC50 [12]: 5.18 µM (active)

O=C(CCCN1C(=O)S/C(=C/c2ccccc2)C1=S)Nc1ccc(C(=O)O)cc1
IC50 [13]: 1.51 µM (active)
IC50 [14]: 1.45 µM (active)
IC50 (Caspase-3): 23.5 µM (active)
IC50 [15]: 21.3 µM (active)
IC50 [16]: 23.7 µM (active)
IC50 [17]: 29.8 µM (active)
IC50 [18]: > 32 µM (inactive)

CCC(C)(C)C(=O)O [DIMEBUTIC ACID]
AC50 [9]: 12.6 µM (inconclusive)

CCC(C)OC(=O)C[N+](C)(C)CCOC1CC2CCC1(C)C2(C)C (configuration not stated)
EC50 [19]: > 150 µM (inconclusive)
IC50 [11]: 0.418 µM (active)
IC50 [12]: < 0.25 µM (active)
EC50 [20]: 4.36 µM (active)
EC50 [21]: 0.341 µM (active)
EC50 [22]: > 60 µM (not active)
